Data as given in patent US20200030342A1, “DEHYDROEPIANDROSTERONE (DHEA) SUPPL[…] FEMALE SEXUAL DESIRE AND FUNCTION IN PRE-[…]” (American Infertility of New York, P.C., priority 2018, published 2020).

Tests used:
[1] = system: premenopausal infertile women; assay: Female Sexual Function Index (FSFI) questionnaire before and after DHEA supplementation, observational study; format: in vivo
Procedure: An observational study was conducted in an academically affiliated private fertility center. Patients included 87 premenopausal infertile women, 50 of whom completed the study including the Female Sexual Function Index (FSFI) questionnaires and comprehensive endocrine evaluation before and 4-8 weeks after initiating 25 mg of oral micronized DHEA TID. An example of a FSFI questionnaire is in a FSFI Scoring Appendix at the end of this patent application together with a discussion as to the manner of determining FSFI domain scores and full-scale score, which establish FSFI baselines.
(§1) All patients in the study were asked to complete the self-reported Female Sexual Function Index (FSFI) questionnaire^31 prior to initiation to DHEA supplements and again 4-8 weeks later. The patients' fertility treatments were not affected by their participation in this study, in laboratory investigations, and/or timing of procedures. Patients underwent the same standard endocrine evaluations all patients undergo at the Center for Human Reproduction, including measurement of serum androgen levels: DHEA, DHEAS, total (TT) and free testosterone (FT) before, and 4-8 weeks after, initiating 25 mg of oral DHEA supplementation TID. All here presented hormone levels were obtained by commercial assays (LabCorp, Burlington, N.C.). All androgen levels were measured using high-pressure liquid chromatography/tandem mass spectrometry.
Pearson correlation was used to investigate relationships between FSFI scores and patient demographics, as well as, hormone levels. Comparisons of FSFI scores and endocrine parameters before—and after—DHEA supplementation were made using paired T-tests. Based on starting FSFI scores patients were further subdivided into quartiles. Patient responses before and after DHEA supplementation from those in lowest and highest quartiles were then compared. Groups were compared using a two-sampled T-test or chi-square test. A P-value <0.05 was considered significant. All analyses were conducted using SAS version 9.4 (SAS Institute Inc. Cary, N.C.).
The individual domain scores and full scale (overall) score of the FSFI can be derived from the computational formula outlined in the table below. For individual domain scores, add the scores of the individual items that comprise the domain and multiply the sum by the domain factor (see below). Add the six domain scores to obtain the full scale score. […] Subject scores can be entered in the right-hand colum.

[2] = Endocrine evaluation: serum hormone levels before and after DHEA supplementation; format: in vivo, women
Text: as §1
The measurement procedures for measuring serum androgen and FSH are conventional. The formulation for an oral dosage of DHEA is conventional.

[3] = Center's experience with DHEA treatment of infertile patients: testosterone levels in response to DHEA or transdermal testosterone; format: in vivo, women
Text: One purpose of DHEA supplementation is raising testosterone levels. In other words, the biologically active hormone is testosterone. Its application, however, has more side effects. But some patients have a hard time converting DHEA to testosterone [Shohat-Tal A, Sen A, Barad D H, Kushnir V, Gleicher N. Genetics of androgen metabolism in women with infertility and hypoandrogenism. Nat Rev Endocrinol 2015; 11(7):429-441] and, therefore, must be treated directly with testosterone. The testosterone dosage is 0.05 mg transdermal by pump between once to 2-times per day for the same time period that DHEA supplementation dosages are taken. The peripheral testosterone levels and SHBG in blood are monitored and adjusted accordingly. Sex hormone binding globulin (SHBG) is a protein that is produced by the liver and binds tightly to the hormones testosterone, dihydrotestosterone (DHT), and estradiol (an estrogen). If patients require testosterone directly, the DHEA supplementation is still continued.

[4] = Baseline FSFI Score < 25.7, N = 12
[5] = Baseline FSFI Score ≥ 31.9, N = 13
[6] = lowest starting FSFI score quartile (<25.7)
[7] = whole group N=50, DHEA 25 mg TID 4-8 weeks, mean change
[8] = whole group N=50, DHEA 25 mg TID 4-8 weeks, mean change of domain score

C[C@]12CC[C@H](O)CC1=CC[C@@H]1[C@@H]2CC[C@]2(C)C(=O)CC[C@@H]12 [DHEA, dehydroepiandrosterone]
Δ Arousal [1, 4]: 1.3±1.7 | Δ Desire [1, 4]: 1.0±0.8 | Δ Lubrication [1, 4]: 0.8±2.3 | Δ Orgasm [1, 4]: 1.0±2.3 | Δ Pain [1, 4]: 0.9±2.3 | Δ Satisfaction [1, 4]: 0.9±1.3 | Δ Arousal [1, 5]: −0.2 ± 0.5 | Δ Desire [1, 5]: −0.1 ± 0.6 | Δ Lubrication [1, 5]: −0.1 ± 0.6 | Δ Orgasm [1, 5]: −0.5 ± 1.1 | Δ Pain [1, 5]: −0.1 ± 0.4 | Δ Satisfaction [1, 5]: 0.0 ± 0.7 | Δ FSFI Score ([1]; highest starting FSFI quartile, Baseline FSFI Score ≥ 31.9, N = 13, DHEA 25 mg TID 4-8 weeks): −1.0 ± 2.7 | Δ FSFI Score ([1]; lowest starting FSFI quartile, Baseline FSFI Score < 25.7, N = 12, DHEA 25 mg TID 4-8 weeks): 6.1±8.0 | Improvement in domain arousal [1, 6]: 46% | Improvement in domain desire [1, 6]: 40% | Improvement in domain lubrication [1, 6]: 33% | Improvement in domain orgasm [1, 6]: 54% | Improvement in domain pain [1, 6]: 25% | Improvement in domain satisfaction [1, 6]: 24% | Increase in total FSFI score [1, 6]: 34% | Δ Arousal: Confidence [1, 7]: 0.4 | Δ Arousal: Frequency [1, 7]: 0.3 | Δ Arousal: Level [1, 7]: 0.4 | Δ Arousal: Satisfaction [1, 7]: 0.4 | Δ Desire: Frequency [1, 7]: 0.5 | Δ Desire: Level [1, 7]: 0.5 | Δ Lubrication: Difficulty (first line) [1, 7]: 0.3 | Δ Lubrication: Difficulty (second line, after Maintaining) [1, 7]: 0.2 | Δ Lubrication: Frequency [1, 7]: 0.3 | Δ Lubrication: Maintaining [1, 7]: 0.3 | Δ Orgasm: Difficulty [1, 7]: 0.1 | Δ Orgasm: Frequency [1, 7]: 0.0 | Δ Orgasm: Satisfaction [1, 7]: 0.1 | Δ Pain: During [1, 7]: 0.3 | Δ Pain: Following [1, 7]: 0.2 | Δ Pain: Level [1, 7]: 0.0 | Δ Satisfaction: Closeness [1, 7]: 0.3 | Δ Satisfaction: Overall [1, 7]: 0.3 | Δ Satisfaction: Relationship [1, 7]: 0.2 | Δ Arousal [1, 8]: 0.5 | Δ Desire [1, 8]: 0.6 | Δ Lubrication [1, 8]: 0.4 | Δ Orgasm [1, 8]: 0.1 | Δ Pain [1, 8]: 0.2 | Δ Satisfaction [1, 8]: 0.3 | Δ FSFI Score ([1]; whole group, 50 premenopausal infertile women, oral micronized DHEA 25 mg TID, before vs 4-8 weeks after, mean): 2.0 | Domain score for arousal, increase ([1]; whole study group): 12% | Domain score for desire, increase ([1]; whole study group): 17% | Domain score for orgasm, change ([1]; whole study group): no significant changes | Domain score for pain, change ([1]; whole study group): no significant changes | Domain score for satisfaction, change ([1]; whole study group): no significant changes | Domain score for lubrication, trend towards improvement ([1]; whole study group, P=0.0551): 8% | FSFI score increase ([1]; whole study group, following DHEA supplementation): 7% | FSFI score after DHEA supplementation ([1]; whole study group, from baseline 27.2±6.9): 29.2±5.6 | Δ Hormone: AMH [2, 4]: 0.0 ± 0.6 ng/mL | Δ Hormone: Cortisol [2, 4]: 2.5 ± 1.6 µg/dL | Δ Hormone: DHEA [2, 4]: 291.0 ± 227.7 ng/dL | Δ Hormone: FSH [2, 4]: −3.6 ± 2.6 mIU/mL | Δ Hormone: Free Testosterone [2, 4]: 1.8 ± 1.3 pg/mL | Δ Hormone: SHBG [2, 4]: -15.8 ± 41.1 nmol/L | Δ Hormone: Total Testosterone [2, 4]: 16.4 ± 18.5 ng/dL | Δ Hormone: AMH [2, 5]: 0.1 ± 0.6 ng/mL | Δ Hormone: Cortisol [2, 5]: -0.4 ± 5.5 µg/dL | Δ Hormone: DHEA [2, 5]: 275.7 ± 186.6 ng/dL | Δ Hormone: FSH [2, 5]: −1.6 ± 3.5 mIU/mL | Δ Hormone: Free Testosterone [2, 5]: 0.5 ± 1.4 pg/mL | Δ Hormone: SHBG [2, 5]: -21.0 ± 51.6 nmol/L | Δ Hormone: Total Testosterone [2, 5]: 11.8 ± 18.6 ng/dL | Δ Hormone: AMH [2, 7]: 0.0 ng/mL | Δ Hormone: Cortisol [2, 7]: 1.3 µg/dL | Δ Hormone: FSH [2, 7]: −2.6 mIU/mL | Δ Hormone: Free Testosterone [2, 7]: 1.4 pg/mL | Δ Hormone: SHBG [2, 7]: -24.0 nmol/L | Δ Hormone: Total Testosterone [2, 7]: 15.1 ng/dL | Δ Hormone: DHEA ([2]; whole group N=50, DHEA 25 mg TID 4-8 weeks, mean change of serum level): 235.1 ng/dL | AMH levels, change ([2]; whole study group): no change | Cortisol levels, change ([2]; whole study group): no change | FSH levels, decrease from baseline ([2]; whole study group, baseline 10.3±5.4 mIU/mL): 2.6±4.4 mIU/mL | SHBG, decrease from baseline ([2]; whole study group, baseline 92.7±43.2 nmol/L): 24.0 ± 39.4 nmol/L | All serum androgen levels (DHEA, DHEAS, TT, FT), change from baseline ([2]; whole study group, each P<0.0001): increased | Patients who do not raise their testosterone levels in response to DHEA supplementation ([3]; infertile patients overall, a little more among African-descent women): less than 5%

C[C@]12CC[C@H]3[C@@H](CCC4=CC(=O)CC[C@@]43C)[C@@H]1CC[C@@H]2O [testosterone]
Testosterone levels achieved in patients not responding to DHEA ([3]; 0.05 mg transdermal by pump once to 2-times per day, same time period): very similar testosterone levels are achieved
